From patent US8846698B2, “Pyrrolo[2,3-d]pyrimidine tropomysin-related kinase inhibitors” (Pfizer Limited, priority 2011, dated 2014)

Legend:
[1] = molecular target: T1, TRKA (Homo sapiens (Human), UniProt P04629); test: Cell based DiscoveRx PathHunter antagonist assay, TRKA cell line; conditions: read-out: TrkA cell potency
Procedure: (§1) After the Detection Reagent addition, plates are covered and incubated at room temperature for 60 minutes. […] Test compound data are expressed as percentage inhibition defined by HPE and ZPE values for each plate. Percentage inhibition in the presence of test compound is plotted against compound concentration on a log scale to determine an IC50 from the resultant sigmoid curve. Cell Based Assays were carried out using Cell lines from DiscoveRx utilising their PathHunter technology and reagents in an antagonist assay:
(§2) The assays are based upon DiscoveRx's proprietary Enzyme Fragment Complementation (EFC) technology. In the case of the TRK cell lines, the enzyme acceptor (EA) protein is fused to a SH2 protein and the TRK receptor of interest has been tagged with a Prolink tag.
(§3) Upon neurotrophin binding, the TRK receptor becomes phosphorylated, and the tagged SH2 protein binds.
(§4) This means that the IC50 is a good measure of affinity and should be unaffected by concentration neurotrophin stimulant.
(§5) Cryopreserved PathHunter cells are used from either in-house produced batches or bulk batches bought directly from DiscoveRx. Cryopreserved cells are resuscitated, spun 1000 rpm for 4 min to remove freezing media, and resuspended in MEM+0.5% horse serum (both Invitrogen) to 5e^5 cells/ml. The cells are then plated using a Multidrop into Greiner white tissue culture treated plates at 20 ul/well and incubated for 24 h at 37° C., 5% CO2, high humidity. On the day of the assay, the cell plates are allowed to cool to room temperature for 30 min prior to the assay.
(§6) Plates containing 1 ul of serially diluted compound, standard and HPE/ZPE are diluted 1/66 in assay buffer (PBS minus Ca^2+, minus Mg^2+ with 0.05% pluronic F127) using a Wellmate. […] The plates are left at room temperature for a further 2 hours before addition of 10 ul of the DiscoveRx PathHunter detection reagent (made up by adding 1 part Galacton Star, 5 parts Emerald II and 19 parts Cell Assay Buffer as per the manufacturer's instructions).
(§7) After reagent addition, plates are covered and incubated at room temperature for 60 minutes. Luminescence signal is read using an Envision. Test compound data are expressed as percentage inhibition defined by HPE and ZPE values for each plate. Percentage inhibition in the presence of test compound is plotted against compound concentration on a log scale to determine an […] from the resultant sigmoid curve.
Target sequence in this assay (P04629 33-796): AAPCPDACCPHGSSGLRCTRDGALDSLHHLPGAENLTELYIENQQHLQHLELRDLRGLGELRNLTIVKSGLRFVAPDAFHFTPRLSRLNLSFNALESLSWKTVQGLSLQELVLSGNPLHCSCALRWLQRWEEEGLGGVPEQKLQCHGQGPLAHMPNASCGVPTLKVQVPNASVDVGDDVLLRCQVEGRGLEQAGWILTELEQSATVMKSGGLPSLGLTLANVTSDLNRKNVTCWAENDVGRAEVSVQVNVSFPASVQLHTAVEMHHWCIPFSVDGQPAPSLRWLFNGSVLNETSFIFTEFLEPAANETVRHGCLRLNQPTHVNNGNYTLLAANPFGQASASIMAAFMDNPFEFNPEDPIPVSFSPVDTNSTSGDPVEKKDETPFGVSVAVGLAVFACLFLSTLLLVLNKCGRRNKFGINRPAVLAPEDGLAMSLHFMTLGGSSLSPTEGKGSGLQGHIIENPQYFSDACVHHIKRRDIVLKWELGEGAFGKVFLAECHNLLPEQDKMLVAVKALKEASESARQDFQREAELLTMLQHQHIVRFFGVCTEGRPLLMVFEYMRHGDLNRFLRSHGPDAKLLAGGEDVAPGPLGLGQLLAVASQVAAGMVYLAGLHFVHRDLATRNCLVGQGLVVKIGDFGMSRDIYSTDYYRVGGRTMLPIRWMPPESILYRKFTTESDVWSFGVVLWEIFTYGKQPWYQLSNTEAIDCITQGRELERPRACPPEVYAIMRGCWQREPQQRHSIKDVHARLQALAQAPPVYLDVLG

[2] = molecular target: TRKB (Homo sapiens (Human), UniProt Q16620); test: cell-based; conditions: TrkB cell potency, TRKB PathHunter cell line
Chain of TRKB (Q16620 32-822 limits assumed): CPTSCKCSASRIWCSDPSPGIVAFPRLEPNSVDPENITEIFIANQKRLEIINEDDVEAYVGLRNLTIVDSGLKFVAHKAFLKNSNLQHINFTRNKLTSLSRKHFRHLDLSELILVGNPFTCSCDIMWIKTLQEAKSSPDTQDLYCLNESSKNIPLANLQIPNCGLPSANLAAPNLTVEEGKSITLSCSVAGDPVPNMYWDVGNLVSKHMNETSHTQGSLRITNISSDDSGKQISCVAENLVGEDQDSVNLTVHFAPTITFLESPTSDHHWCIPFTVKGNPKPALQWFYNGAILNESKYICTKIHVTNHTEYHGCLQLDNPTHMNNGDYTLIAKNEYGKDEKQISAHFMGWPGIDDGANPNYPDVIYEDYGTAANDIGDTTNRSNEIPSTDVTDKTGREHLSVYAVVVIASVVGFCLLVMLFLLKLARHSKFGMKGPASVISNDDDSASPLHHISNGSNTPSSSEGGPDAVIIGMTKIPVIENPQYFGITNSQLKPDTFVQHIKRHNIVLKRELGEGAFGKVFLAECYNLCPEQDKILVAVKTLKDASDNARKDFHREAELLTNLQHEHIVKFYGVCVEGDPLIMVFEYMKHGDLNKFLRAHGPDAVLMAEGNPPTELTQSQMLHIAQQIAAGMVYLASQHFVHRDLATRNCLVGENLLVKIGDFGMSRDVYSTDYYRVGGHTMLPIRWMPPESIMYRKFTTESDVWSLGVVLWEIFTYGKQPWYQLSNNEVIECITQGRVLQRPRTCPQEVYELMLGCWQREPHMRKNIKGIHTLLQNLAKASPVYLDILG
Procedure: as §1, §2, §3, §4, §5, §6, §7

[3] = molecular target: T1, TRKA; test: Isolated TRK enzyme assay (HTRF KinEASE-TK), TRKA; format: biochemical
Target sequence in this assay (P04629 441-796): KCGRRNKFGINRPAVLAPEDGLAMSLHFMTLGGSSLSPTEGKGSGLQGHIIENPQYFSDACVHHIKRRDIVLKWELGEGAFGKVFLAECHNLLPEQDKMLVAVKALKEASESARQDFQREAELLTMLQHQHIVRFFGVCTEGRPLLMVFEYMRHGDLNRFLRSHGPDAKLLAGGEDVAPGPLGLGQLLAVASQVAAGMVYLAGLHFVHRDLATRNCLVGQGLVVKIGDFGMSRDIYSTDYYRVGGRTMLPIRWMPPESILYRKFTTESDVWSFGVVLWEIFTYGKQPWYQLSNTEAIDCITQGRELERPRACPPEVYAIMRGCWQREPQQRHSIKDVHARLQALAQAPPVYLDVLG

[4] = molecular target: MDR1 (Homo sapiens (Human), UniProt P08183); test: MDCK-MDR1 assay (in vitro brain penetration); format: in vitro ADME; conditions: human
Chain of MDR1 (P08183 whole entry): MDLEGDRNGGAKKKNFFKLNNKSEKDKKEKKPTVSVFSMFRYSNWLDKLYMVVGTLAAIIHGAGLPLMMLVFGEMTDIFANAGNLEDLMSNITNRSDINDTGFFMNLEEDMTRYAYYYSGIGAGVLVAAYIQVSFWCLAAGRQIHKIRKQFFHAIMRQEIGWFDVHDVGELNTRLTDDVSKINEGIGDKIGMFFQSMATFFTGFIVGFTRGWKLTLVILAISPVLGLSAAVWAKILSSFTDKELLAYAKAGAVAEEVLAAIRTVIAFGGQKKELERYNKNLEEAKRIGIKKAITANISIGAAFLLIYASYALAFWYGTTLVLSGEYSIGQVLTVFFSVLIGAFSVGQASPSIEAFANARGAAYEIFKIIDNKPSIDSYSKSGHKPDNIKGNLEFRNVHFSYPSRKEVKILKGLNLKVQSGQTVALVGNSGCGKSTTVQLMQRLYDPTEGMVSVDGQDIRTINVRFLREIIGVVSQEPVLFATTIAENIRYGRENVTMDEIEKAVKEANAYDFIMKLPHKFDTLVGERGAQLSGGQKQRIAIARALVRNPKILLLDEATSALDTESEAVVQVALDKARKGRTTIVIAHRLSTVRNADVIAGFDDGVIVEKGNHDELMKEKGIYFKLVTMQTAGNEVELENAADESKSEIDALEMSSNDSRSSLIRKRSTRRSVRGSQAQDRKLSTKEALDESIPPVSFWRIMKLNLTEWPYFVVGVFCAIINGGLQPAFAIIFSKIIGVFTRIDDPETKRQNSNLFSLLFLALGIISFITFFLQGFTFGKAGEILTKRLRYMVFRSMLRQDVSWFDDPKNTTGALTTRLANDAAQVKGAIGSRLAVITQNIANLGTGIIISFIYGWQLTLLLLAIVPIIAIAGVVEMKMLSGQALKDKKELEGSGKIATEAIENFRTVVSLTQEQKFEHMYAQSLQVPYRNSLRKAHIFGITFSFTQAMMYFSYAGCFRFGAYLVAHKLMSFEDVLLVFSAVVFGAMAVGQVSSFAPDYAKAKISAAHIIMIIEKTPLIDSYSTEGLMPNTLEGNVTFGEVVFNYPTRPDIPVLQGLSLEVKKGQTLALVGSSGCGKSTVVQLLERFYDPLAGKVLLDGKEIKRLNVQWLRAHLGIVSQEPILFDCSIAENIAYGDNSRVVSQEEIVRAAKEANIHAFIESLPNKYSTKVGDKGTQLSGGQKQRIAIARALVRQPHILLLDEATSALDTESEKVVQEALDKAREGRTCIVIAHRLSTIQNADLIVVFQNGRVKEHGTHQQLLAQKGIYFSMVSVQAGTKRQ
Excerpt: MDCK-MDR1: MDCK-MDR1 data were collected according to the method described in “Are MDCK Cells Transfected with the Human MDR1 Gene a Good Model of the Human Intestinal Mucosa?”
http://www.springerlink.com/content/qfhqlqbr4fnp3 khf/fulltext.pdf

[5] = isolated TRKA enzyme, read-out: TrkA enzyme potency

IC50 ([3]; read-out: Trka enzyme (IC50)) [nM] | Compound | further results
 | CC(CO)n1cc(C(=O)c2cncc(NC(=O)Cc3ccc(F)cn3)c2)c2cnc(N)nc21 (single isomer, unassigned) [Example 37, N-(5-{[2-amino-7-(2-hydroxy-1-methylethyl)-7H-pyrrolo[2,3-d]pyrimidin-5-yl]carbonyl}pyridin-3-yl)-2-(5-fluoropyridin-2-yl)acetamide] | IC50 [1]: 2250 nM; IC50 [2]: 571 nM; IC50 [3, 5]: 67 nM
 | CC(CO)n1cc(C(=O)c2cncc(NC(=O)Cn3ccc(C(F)(F)F)n3)c2)c2cnc(N)nc21 (single isomer, unassigned) [Example 38, N-(5-{[2-amino-7-(2-hydroxy-1-methylethyl)-7H-pyrrolo[2,3-d]pyrimidin-5-yl]carbonyl}pyridin-3-yl)-2-[3-(trifluoromethyl)-1H-pyrazol-1-yl]acetamide] | IC50 [1]: 1060 nM; IC50 [2]: 589 nM; IC50 [3, 5]: 7.2 nM; Papp B→A ([4]; MDCK-MDR1, MDCK-MDR1, B to A, read-out: MDCK MDR1 Papp BA): 2.1 ×10⁻⁶ cm/s; Papp A→B ([4]; MDCK-MDR1, A to B, read-out: MDCK MDR1 Papp AB): < 1 ×10⁻⁶ cm/s
9.5 | CC1(n2cc(C(=O)c3cncc(NC(=O)Cc4cccc(C(F)(F)F)c4)c3)c3cncnc32)COC1 [Example 572, N-{5-[7-(3-Methyl-oxetan-3-yl)-7H-pyrrolo[2,3-d]pyrimidine-5-carbonyl]-pyridin-3-yl}-2-(3-trifluoromethyl-phenyl)-acetamide] | 
17.9 | CC1(n2cc(C(=O)c3cncc(NC(=O)Cc4ccc(C(F)(F)F)c(F)c4)c3)c3cncnc32)COC1 [Example 573, 2-(3-Fluoro-4-trifluoromethyl-phenyl)-N-{5-[7-(3-methyl-oxetan-3-yl)-7H-pyrrolo[2,3-d]pyrimidine-5-carbonyl]-pyridin-3-yl}-acetamide] | 
14.2 | CC1(n2cc(C(=O)c3cncc(NC(=O)c4cccc(C(F)(F)F)c4)c3)c3cncnc32)COC1 [Example 574, N-{5-[7-(3-Methyl-oxetan-3-yl)-7H-pyrrolo[2,3-d]pyrimidine-5-carbonyl]-pyridin-3-yl}-3-trifluoromethyl-benzamide] | 
3.09 | CC1(n2cc(C(=O)c3cncc(NC(=O)c4cccc(OC(F)(F)F)c4)c3)c3cncnc32)COC1 [Example 575, N-{5-[7-(3-Methyl-oxetan-3-yl)-7H-pyrrolo[2,3-d]pyrimidine-5-carbonyl]-pyridin-3-yl}-3-trifluoromethoxy-benzamide] | 
296 | CC(C)(CO)n1cc(C(=O)c2cncc(NC(=O)Cn3cc(C4CC4)cn3)c2)c2cnc(N)nc21 [Example 576, N-{5-[2-Amino-7-(2-hydroxy-1,1-dimethyl-ethyl)-7H-pyrrolo[2,3-d]pyrimidine-5-carbonyl]-pyridin-3-yl}-2-(4-cyclopropyl-pyrazol-1-yl)-acetamide] | 
1.9 | CC(C)(C)n1cc(C(=O)c2cncc(NC(=O)Cn3cc(C4CC4)cn3)c2)c2cnc(N)nc21 [Example 577, N-[5-(2-Amino-7-tert-butyl-7H-pyrrolo[2,3-d]pyrimidine-5-carbonyl)-pyridin-3-yl]-2-(4-cyclopropyl-pyrazol-1-yl)-acetamide] | 
6.07 | Nc1ncc2c(C(=O)c3cncc(NC(=O)Cc4ccc(F)cn4)c3)cn(C34CC(C3)C4)c2n1 [Example 578, N-[5-(2-Amino-7-bicyclo[1.1.1]pent-1-yl-7H-pyrrolo[2,3-d]pyrimidine-5-carbonyl)-pyridin-3-yl]-2-(5-fluoro-pyridin-2-yl)-acetamide] | 
8.11 | CS(=O)(=O)c1cccc(CC(=O)Nc2cncc(C(=O)c3cn(C45CC(C4)C5)c4nc(N)ncc34)c2)c1 [Example 579, N-[5-(2-Amino-7-bicyclo[1.1.1]pent-1-yl-7H-pyrrolo[2,3-d]pyrimidine-5-carbonyl)-pyridin-3-yl]-2-(3-methanesulfonyl-phenyl)-acetamide] | 
0.825 | Nc1ncc2c(C(=O)c3cncc(NC(=O)Cn4ccc(C(F)(F)F)n4)c3)cn(C34CC(C3)C4)c2n1 [Example 580, N-[5-(2-Amino-7-bicyclo[1.1.1]pent-1-yl-7H-pyrrolo[2,3-d]pyrimidine-5-carbonyl)-pyridin-3-yl]-2-(3-trifluoromethyl-pyrazol-1-yl)-acetamide] | 
3.21 | Nc1ncc2c(C(=O)c3cncc(NC(=O)Cn4cc(C(F)(F)F)nn4)c3)cn(C34CC(C3)C4)c2n1 [Example 581, N-[5-(2-Amino-7-bicyclo[1.1.1]pent-1-yl-7H-pyrrolo[2,3-d]pyrimidine-5-carbonyl)-pyridin-3-yl]-2-(4-trifluoromethyl-[1,2,3]triazol-1-yl)-acetamide] | 
9.79 | N#Cc1ccc(CC(=O)Nc2cncc(C(=O)c3cn(C45CC(C4)C5)c4nc(N)ncc34)c2)cc1 [Example 582, N-[5-(2-Amino-7-bicyclo[1.1.1]pent-1-yl-7H-pyrrolo[2,3-d]pyrimidine-5-carbonyl)-pyridin-3-yl]-2-(4-cyano-phenyl)-acetamide] | 
0.681 | Nc1ncc2c(C(=O)c3cncc(NC(=O)Cc4ccc(Cl)cn4)c3)cn(C34CC(C3)C4)c2n1 [Example 583, N-[5-(2-Amino-7-bicyclo[1.1.1]pent-1-yl-7H-pyrrolo[2,3-d]pyrimidine-5-carbonyl)-pyridin-3-yl]-2-(5-chloro-pyridin-2-yl)-acetamide] | 
581 | CC(C)n1cc(C(=O)c2c[nH]c(=O)c(NC(=O)Cc3ccc(C#N)cc3)c2)c2cncnc21 [Example 584, 2-(4-cyanophenyl)-N-(2-oxo-5-{[7-(propan-2-yl)-7H-pyrrolo[2,3-d]pyrimidin-5-yl]carbonyl}-1,2-dihydropyridin-3-yl)acetamide] | 
36.7 | CC(C)n1cc(C(=O)c2c[nH]c(=O)c(NC(=O)COc3ccccc3OC(F)(F)F)c2)c2cncnc21 [Example 585, N-(2-oxo-5-{[7-(propan-2-yl)-7H-pyrrolo[2,3-d]pyrimidin-5-yl]carbonyl}-1,2-dihydropyridin-3-yl)-2-[2-(trifluoromethoxy)phenoxy]acetamide] | 
1000 | CC(C)n1cc(C(=O)c2c[nH]c(=O)c(NC(=O)Cc3coc(C4CC4)n3)c2)c2cncnc21 [Example 586, 2-(2-cyclopropyl-1,3-oxazol-4-yl)-N-(2-oxo-5-{[7-(propan-2-yl)-7H-pyrrolo[2,3-d]pyrimidin-5-yl]carbonyl}-1,2-dihydropyridin-3-yl)acetamide] | 
20.5 | Cc1cc(C(F)(F)F)nn1CC(=O)Nc1cc(C(=O)c2cn(C(C)C)c3ncncc23)c[nH]c1=O [Example 587, 2-[5-methyl-3-(trifluoromethyl)-1H-pyrazol-1-yl]-N-(2-oxo-5-{[7-(propan-2-yl)-7H-pyrrolo[2,3-d]pyrimidin-5-yl]carbonyl}-1,2-dihydropyridin-3-yl)acetamide] | 
334 | CC(C)n1cc(C(=O)c2c[nH]c(=O)c(NC(=O)Cc3ccc4cccnc4c3)c2)c2cncnc21 [Example 588, N-(2-oxo-5-{[7-(propan-2-yl)-7H-pyrrolo[2,3-d]pyrimidin-5-yl]carbonyl}-1,2-dihydropyridin-3-yl)-2-(quinolin-7-yl)acetamide] | 
31.3 | CC(C)n1cc(C(=O)c2c[nH]c(=O)c(NC(=O)Cc3ccc(Cl)cc3)c2)c2cncnc21 [Example 589, 2-(4-chlorophenyl)-N-(2-oxo-5-{[7-(propan-2-yl)-7H-pyrrolo[2,3-d]pyrimidin-5-yl]carbonyl}-1,2-dihydropyridin-3-yl)acetamide] | 
71.2 | CC(C)n1cc(C(=O)c2c[nH]c(=O)c(NC(=O)Cc3ccc(Cl)cn3)c2)c2cncnc21 [Example 590, 2-(5-chloropyridin-2-yl)-N-(2-oxo-5-{[7-(propan-2-yl)-7H-pyrrolo[2,3-d]pyrimidin-5-yl]carbonyl}-1,2-dihydropyridin-3-yl)acetamide] | 
142 | CC(C)n1cc(C(=O)c2c[nH]c(=O)c(NC(=O)Cn3cc(C(F)(F)F)nn3)c2)c2cncnc21 [Example 591, N-(2-oxo-5-{[7-(propan-2-yl)-7H-pyrrolo[2,3-d]pyrimidin-5-yl]carbonyl}-1,2-dihydropyridin-3-yl)-2-[4-(trifluoromethyl)-1H-1,2,3-triazol-1-yl]acetamide] | 
32.3 | N-(5-(7-(1,3-dihydroxy-2-methylpropan-2-yl)-7H-pyrrolo[2,3-d]pyrimidine-5-carbonyl)pyridin-3-yl)-2-(3-trifluoromethoxy)phenyl)acetamide [Example 262] | 
